Measurements from patent US6664283B1, “Pharmaceuticals for neurogenic pain” (Yamanouchi Pharmaceutical Co., Ltd., priority 1999, dated 2003).
Read-outs that look alike come from different tables or passages of the source.

Experiments:
[1] = system: STZ-induced diabetes mice; assay: tail pinch test in STZ-induced diabetes mice model; assay type: in vivo, ICR mice; settings: 45 minutes after administration, STZ mice day 15
Procedure: The test was carried out by modifying a previously reported method (Pharmacol. Biochem. Behav., 39, 541-544, 1991). STZ at a dose of 200 mg/kg was intraperitoneally administered to 4-weeks-old ICR mice. A pre-drug tail pinch test was carried out in the afternoon at the fourteenth day after the STZ-administration, and animals showing a reaction latency of 3 seconds or less were subjected to the next day's test. At the fifteenth day after the STZ-administration, each drug was administered orally and a post-drug tail pinch test was carried out 45 minutes after the drug administration. […] Statistical analysis was performed with Steel test between the control group and drug-administered group (* and ** in the table are as follows; *p<0.05, **p<0.01 vs. control group).

[2] = target: T1, mGluR1 α (Rattus norvegicus, UniProt P23385); assay: PI hydrolysis assay in mGluR1 α-expressed NIH3T3 cells; assay type: cell-based; settings: 100 μM glutamate, read-out: IC50 value, inhibition of PI formation induced by 100 μM glutamate
T1 construct: expressed in transfected cells; host or cells: NIH3T3
Procedure: Measurement of inhibition activity by mGluR1 α expression cell The NIH3T3 cell lines expressing individually mGluR1 α and mGluR5a were cultured using DMEM containing 10% dialyzed fetal calf serum and 100 units/ml, 0.1 mg/ml of streptomycin sulfate. The CHO cell lines expressing individually mGluR2, R4, R6 and R7 were cultured using DMEM containing 10% dialyzed fetal calf serum, 100 units/ml, 0.1 mg/ml of streptomycin sulfate and 2 mM glutamine. Using the mGluR1 α-expressed cells labeled with ^3H-inositol, hydrolysis of phosphatidylinositol was measured as described previously(Nature, 383, 89-92, 1996).

[3] = target: T2, mGluR1 (Rattus norvegicus, UniProt P23385); assay: PI hydrolysis assay in cerebellar granule cells (mGluR1 antagonistic activity); assay type: cell-based
T2 construct: endogenous in cells; host or cells: primary cerebellar granule cells from Wistar rats aged 7 to 8 days
Procedure: 1. Measurement of mGluR1 Antagonistic Activity Using Cerebellar Granule Cells The whole brain was removed from each of seven Wistar rats of 7 to 8 days of age after birth (Japan S L C), and then the cerebellum was isolated in an L-15 medium (Gibco) under a stereoscopic microscope. The isolated cerebellum was cut into pieces using a surgical knife and incubated at 37° C. for 15 minutes in 0.25% trypsin solution (Gibco) containing 750 U/ml of DNase I (Sigma). After termination of the enzyme reaction by adding fetal calf serum (JRH Biosciences), the tissue pieces were centrifuged and the supernatant was removed by sucking. After adding 10 ml of a high potassium medium, cells were dissociated by 5 to 6 times passage through a plastic pipette. After filtering the cell dispersion through a nylon mesh (40 μm pore), viable cells were counted. The cells were diluted in the high potassium medium and then seeded at a density of 8×10^5 cells/well onto 24-well culture plates (Sumitomo Bakelite) precoated with poly-L-lysine. […] High potassium medium: BME (Gibco)+10% immobilized fetal calf serum+25 mM KCl+1% penicillin/streptomycin (Gibco) The PI hydrolysis was measured as described by Aramori et al(Neuron, 8, 757-765, 1992). […] The eluate was mixed with a liquid scintillator (Aquasol-2) and the radioactivity in the eluate was determined by a liquid scintillation spectrometer.

[4] = system: nerve ligation-induced neuropathic pain animal models; settings: cited from earlier work; for cold hyperalgesia / development of mechanical allodynia: intrathecal twice-daily on post-operative days 0-8
[5] = target: T3, mGluR6 (Rattus norvegicus, UniProt P35349); assay: intracellular cAMP after forskolin stimulation in mGluR6-expressing CHO cells; assay type: cell-based; settings: up to 100 μM; cAMP formation
T3 construct: expressed in transfected cells; host or cells: CHO
Procedure: (§1) The NIH3T3 cell lines expressing individually mGluR1 α and mGluR5a were cultured using DMEM containing 10% dialyzed fetal calf serum and 100 units/ml, 0.1 mg/ml of streptomycin sulfate. The CHO cell lines expressing individually mGluR2, R4, R6 and R7 were cultured using DMEM containing 10% dialyzed fetal calf serum, 100 units/ml, 0.1 mg/ml of streptomycin sulfate and 2 mM glutamine. Using cell lines expressing individually mGluR2, R6 and R7, cAMP formation after forskolin stimulation in the presence of IBMX was measured using a cAMP assay kit as described previously (Neuron, 8, 169-179, 1992).

[6] = target: T4, mGluR7 (Rattus norvegicus, UniProt P35400); assay: intracellular cAMP after forskolin stimulation in mGluR7-expressing CHO cells; assay type: cell-based; settings: up to 100 μM; cAMP formation
T4 construct: expressed in transfected cells; host or cells: CHO
Procedure: as §1

[7] = target: T5, mGluR2 (Rattus norvegicus, UniProt P31421); assay: intracellular cAMP after forskolin stimulation in mGluR2-expressing CHO cells; assay type: cell-based; settings: up to 100 μM; cAMP formation
T5 construct: expressed in transfected cells; host or cells: CHO
Procedure: as §1

[8] = target: T6, mGluR5a (Rattus norvegicus, UniProt P31424); assay: intracellular calcium concentration in mGluR5a-expressed NIH3T3 cells; assay type: cell-based; settings: up to 10 μM
T6 construct: expressed in transfected cells; host or cells: NIH3T3
Procedure: The NIH3T3 cell lines expressing individually mGluR1 α and mGluR5a were cultured using DMEM containing 10% dialyzed fetal calf serum and 100 units/ml, 0.1 mg/ml of streptomycin sulfate. The CHO cell lines expressing individually mGluR2, R4, R6 and R7 were cultured using DMEM containing 10% dialyzed fetal calf serum, 100 units/ml, 0.1 mg/ml of streptomycin sulfate and 2 mM glutamine. Intracellular calcium concentration of the mGluR5a-expressed cells was measured using a spectrofluorometer as described previously (Nature, 383, 89-92, 1996).

[9] = system: spinal L5/L6 nerve-ligated rats; assay: von Frey hair (VFH) test in spinal L5/L6 nerve-ligated rats; assay type: in vivo, SD rats; settings: 30 or 100 mg/kg po; 45 minutes after administration; 7 days after operation
Procedure: The test was carried out by modifying a previously reported method (Pain, 50, 355-363, 1992). SD rats were used. The left side lumbar nerves (L5 and L6) of each animal were ligated with silk threads under pentobarbital anesthesia. The following test was carried out 7 days after the operation.
After 45 minutes of oral administration of drug, von Frey hair (VFH) test was carried out to measure a mechanical pain threshold. The measurement was carried out on both hindpaws.
Although there was little difference in the mechanical pain thresholds between the left and right hindpaw in sham-operated rats in which the threshold was 17 to 20 g (log(g): 1.23-1.30), the obvious reduction of the mechanical pain threshold in the operated side hinpaw was found in spinal L5/L6 nerve-ligated rats.
Statistical analysis was performed with Dunnet test and carried out on each side hindpaw between the control group and drug-administered groups (** and *** in the table are as follows; **p<0.01, ***p<0.001 vs. control group).

T2 sequence (P23385 19-1199): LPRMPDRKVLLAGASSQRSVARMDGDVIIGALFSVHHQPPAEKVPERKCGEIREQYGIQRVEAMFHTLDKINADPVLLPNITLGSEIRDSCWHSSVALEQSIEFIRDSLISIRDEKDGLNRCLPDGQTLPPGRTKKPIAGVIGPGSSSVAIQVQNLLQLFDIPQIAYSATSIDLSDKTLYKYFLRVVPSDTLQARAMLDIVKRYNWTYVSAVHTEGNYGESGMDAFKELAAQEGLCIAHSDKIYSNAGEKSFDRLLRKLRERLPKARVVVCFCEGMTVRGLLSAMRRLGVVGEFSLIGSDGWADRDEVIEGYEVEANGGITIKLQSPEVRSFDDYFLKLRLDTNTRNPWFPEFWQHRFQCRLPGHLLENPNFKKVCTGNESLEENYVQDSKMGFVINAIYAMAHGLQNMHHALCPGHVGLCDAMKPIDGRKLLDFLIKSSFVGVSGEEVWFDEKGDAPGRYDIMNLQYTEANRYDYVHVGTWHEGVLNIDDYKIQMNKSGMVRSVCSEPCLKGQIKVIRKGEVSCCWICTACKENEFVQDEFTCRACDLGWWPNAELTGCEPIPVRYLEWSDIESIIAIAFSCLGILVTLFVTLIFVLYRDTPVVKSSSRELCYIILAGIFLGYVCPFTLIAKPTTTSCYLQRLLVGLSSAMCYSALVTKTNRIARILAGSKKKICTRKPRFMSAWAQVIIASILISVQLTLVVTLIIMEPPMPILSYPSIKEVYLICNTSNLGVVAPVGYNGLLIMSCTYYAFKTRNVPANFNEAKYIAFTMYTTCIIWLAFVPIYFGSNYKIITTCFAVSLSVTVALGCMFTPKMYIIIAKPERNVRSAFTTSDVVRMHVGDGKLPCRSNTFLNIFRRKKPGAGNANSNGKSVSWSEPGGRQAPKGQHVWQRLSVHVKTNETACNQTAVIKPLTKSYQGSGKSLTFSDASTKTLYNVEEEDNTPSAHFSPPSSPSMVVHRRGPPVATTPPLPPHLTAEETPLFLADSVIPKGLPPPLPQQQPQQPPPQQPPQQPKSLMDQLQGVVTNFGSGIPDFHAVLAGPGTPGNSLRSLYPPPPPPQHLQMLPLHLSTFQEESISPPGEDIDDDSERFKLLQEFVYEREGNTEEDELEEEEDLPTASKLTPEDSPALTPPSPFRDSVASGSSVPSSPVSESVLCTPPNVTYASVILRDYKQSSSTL
T6 sequence (P31424 21-1171 isoform P31424-2 limits assumed): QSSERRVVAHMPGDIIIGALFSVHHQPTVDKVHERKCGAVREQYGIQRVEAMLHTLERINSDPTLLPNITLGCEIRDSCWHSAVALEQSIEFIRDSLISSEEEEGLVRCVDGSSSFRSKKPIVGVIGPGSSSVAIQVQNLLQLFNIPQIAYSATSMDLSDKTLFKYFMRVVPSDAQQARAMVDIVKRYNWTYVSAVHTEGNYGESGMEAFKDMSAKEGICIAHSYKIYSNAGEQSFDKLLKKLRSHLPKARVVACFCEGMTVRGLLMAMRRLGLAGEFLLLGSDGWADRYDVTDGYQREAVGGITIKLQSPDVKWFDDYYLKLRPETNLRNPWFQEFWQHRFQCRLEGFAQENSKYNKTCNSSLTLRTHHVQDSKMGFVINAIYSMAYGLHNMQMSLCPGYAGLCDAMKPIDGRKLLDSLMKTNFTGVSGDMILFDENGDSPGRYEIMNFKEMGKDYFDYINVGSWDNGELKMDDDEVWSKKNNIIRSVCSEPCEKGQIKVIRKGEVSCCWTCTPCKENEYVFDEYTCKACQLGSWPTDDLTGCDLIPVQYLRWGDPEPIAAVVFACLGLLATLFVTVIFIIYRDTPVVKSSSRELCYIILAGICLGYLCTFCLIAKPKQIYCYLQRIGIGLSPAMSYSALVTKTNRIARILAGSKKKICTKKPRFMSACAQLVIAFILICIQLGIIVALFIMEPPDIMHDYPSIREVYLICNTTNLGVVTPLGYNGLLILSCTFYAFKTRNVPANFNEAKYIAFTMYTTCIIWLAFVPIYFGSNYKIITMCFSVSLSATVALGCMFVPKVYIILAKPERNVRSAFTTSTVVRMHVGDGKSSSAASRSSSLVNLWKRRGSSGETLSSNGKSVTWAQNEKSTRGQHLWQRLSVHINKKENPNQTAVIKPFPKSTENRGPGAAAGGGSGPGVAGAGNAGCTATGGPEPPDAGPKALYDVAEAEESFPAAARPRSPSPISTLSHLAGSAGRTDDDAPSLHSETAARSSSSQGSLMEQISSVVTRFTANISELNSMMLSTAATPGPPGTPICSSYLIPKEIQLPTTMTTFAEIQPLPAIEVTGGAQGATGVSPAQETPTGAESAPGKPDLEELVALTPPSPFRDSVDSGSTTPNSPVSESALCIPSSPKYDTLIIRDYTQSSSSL
T1 sequence (P23385 19-1199): as the sequence (P23385 19-1199) above
T3 sequence (P35349 24-871): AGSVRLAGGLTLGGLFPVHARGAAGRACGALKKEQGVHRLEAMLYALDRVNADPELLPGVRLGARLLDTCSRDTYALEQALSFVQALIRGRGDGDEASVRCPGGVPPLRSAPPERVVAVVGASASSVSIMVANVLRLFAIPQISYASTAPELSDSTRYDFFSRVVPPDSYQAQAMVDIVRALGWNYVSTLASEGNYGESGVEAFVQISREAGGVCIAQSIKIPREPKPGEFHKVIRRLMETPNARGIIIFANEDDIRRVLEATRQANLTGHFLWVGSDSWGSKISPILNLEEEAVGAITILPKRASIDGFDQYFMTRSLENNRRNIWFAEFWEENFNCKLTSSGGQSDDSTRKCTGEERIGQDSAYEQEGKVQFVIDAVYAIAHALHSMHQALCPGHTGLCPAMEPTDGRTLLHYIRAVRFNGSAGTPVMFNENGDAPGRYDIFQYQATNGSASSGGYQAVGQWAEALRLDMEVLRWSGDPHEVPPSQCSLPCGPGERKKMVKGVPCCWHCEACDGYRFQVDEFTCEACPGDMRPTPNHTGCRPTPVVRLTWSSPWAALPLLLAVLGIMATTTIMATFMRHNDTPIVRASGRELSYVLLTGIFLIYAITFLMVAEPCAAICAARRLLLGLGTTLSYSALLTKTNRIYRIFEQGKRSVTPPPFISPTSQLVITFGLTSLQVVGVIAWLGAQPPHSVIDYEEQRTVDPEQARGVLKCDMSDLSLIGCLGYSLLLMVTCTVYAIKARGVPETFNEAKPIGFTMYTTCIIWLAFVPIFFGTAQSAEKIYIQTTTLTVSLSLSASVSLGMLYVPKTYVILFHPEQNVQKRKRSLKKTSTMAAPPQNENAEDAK
T5 sequence (P31421 19-872): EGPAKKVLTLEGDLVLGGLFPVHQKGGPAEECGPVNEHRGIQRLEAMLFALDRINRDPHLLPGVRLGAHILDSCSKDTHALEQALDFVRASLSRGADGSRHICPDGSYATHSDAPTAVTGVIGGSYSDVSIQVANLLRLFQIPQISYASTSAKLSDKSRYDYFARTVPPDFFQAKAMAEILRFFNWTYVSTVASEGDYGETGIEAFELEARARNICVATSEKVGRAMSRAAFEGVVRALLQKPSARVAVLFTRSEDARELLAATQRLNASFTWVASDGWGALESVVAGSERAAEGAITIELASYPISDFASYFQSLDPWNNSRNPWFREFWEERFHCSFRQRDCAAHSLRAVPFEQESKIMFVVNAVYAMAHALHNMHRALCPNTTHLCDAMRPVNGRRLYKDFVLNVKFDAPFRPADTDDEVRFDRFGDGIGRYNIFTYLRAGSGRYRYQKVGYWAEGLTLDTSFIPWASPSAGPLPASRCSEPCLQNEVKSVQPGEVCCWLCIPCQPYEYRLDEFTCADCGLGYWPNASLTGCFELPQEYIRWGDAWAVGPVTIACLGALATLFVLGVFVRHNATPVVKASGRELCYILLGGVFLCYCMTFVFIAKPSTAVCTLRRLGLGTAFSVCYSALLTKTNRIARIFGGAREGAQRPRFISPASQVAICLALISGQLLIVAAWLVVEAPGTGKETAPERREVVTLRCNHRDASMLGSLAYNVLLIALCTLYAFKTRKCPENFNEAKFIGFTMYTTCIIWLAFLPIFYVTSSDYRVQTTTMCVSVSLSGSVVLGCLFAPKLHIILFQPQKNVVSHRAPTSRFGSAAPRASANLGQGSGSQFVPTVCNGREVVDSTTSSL
T4 sequence (P35400 35-915): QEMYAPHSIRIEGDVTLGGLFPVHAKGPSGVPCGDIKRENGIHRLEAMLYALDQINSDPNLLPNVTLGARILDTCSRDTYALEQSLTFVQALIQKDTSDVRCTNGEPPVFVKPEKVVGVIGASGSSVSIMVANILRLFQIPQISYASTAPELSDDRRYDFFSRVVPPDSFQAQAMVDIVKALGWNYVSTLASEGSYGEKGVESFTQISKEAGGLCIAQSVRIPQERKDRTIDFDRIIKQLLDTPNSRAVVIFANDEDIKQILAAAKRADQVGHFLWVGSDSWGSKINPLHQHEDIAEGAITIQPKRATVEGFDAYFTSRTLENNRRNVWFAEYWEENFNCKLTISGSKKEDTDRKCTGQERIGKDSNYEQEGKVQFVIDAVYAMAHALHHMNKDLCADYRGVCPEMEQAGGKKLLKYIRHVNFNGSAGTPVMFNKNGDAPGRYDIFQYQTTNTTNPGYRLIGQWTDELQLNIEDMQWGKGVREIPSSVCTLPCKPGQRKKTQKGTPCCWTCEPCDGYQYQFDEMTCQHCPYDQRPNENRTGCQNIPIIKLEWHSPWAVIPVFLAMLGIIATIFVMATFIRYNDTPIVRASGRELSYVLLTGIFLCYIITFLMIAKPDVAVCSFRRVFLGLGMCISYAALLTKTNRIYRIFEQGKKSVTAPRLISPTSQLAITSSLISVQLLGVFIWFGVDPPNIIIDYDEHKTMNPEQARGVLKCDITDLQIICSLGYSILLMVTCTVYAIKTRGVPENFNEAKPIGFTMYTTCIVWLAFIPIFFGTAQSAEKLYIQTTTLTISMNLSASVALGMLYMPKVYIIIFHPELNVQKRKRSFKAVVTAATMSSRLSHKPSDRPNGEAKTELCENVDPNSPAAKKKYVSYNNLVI

| SMILES | reaction latency in tail pinch test ([1]; 10 mg/kg po) | IC50 [2] [nM] | IC50 [3] [nM] | cold hyperalgesia ([4]; assessed on days 4 and 8) | development of mechanical allodynia ([4]; assessed on days 4 and 8) | cold hyperalgesia ([4]; assessed on days 12 and 16) | development of mechanical allodynia ([4]; assessed on days 12 and 16) | development of lowered pain threshold ([4]; intrathecal twice-daily on post-operative days 8-11, any day of the test) | reaction latency in tail pinch test ([1]; 30 mg/kg po) | agonist or antagonist activity for mGluR6 [5] | agonist or antagonist activity for mGluR7 [6] | agonist or antagonist activity for mGluR2 [7] | agonist or antagonist activity for mGluR5 [8] | mechanical pain threshold in the operated side hindpaw (VFH test) [9] |
| --- | --- | --- | --- | --- | --- | --- | --- | --- | --- | --- | --- | --- | --- | --- |
| C[C@H]1CCCC[C@H]1N(C)C(=O)c1cn2c(nc3ccc(N)cc32)s1.Cl.Cl [compound B, (+)-(1R,2S)-6-amino-N-methyl-N-(2-methylcyclohexyl)thiazolo [3,2-a]benzoimidazole-2-carboxamide dihydrochloride] | significantly prolonged the latency | 1.7 | 2 |  |  |  |  |  |  |  |  |  |  |  |
| N[C@H](C(=O)O)c1ccc(C(=O)O)cc1 [(S)-4CPG, (S)-4-carboxyphenylglycine] |  |  |  | attenuated cold hyperalgesia | inhibited a development of mechanical allodynia | did not have an effect | did not have an effect | did not inhibit development of lowered pain threshold |  |  |  |  |  |  |
| Cc1c(C(=O)N(C)C2CCCCC2)sc2nc3ccc(N)cc3n12.Cl.Cl [compound A, 6-amino-N-cyclohexyl-N, 3-dimethylthiazolo[3,2-a]benzoimidazole-2-carboxamide dihydrochloride] |  |  | 22 |  |  |  |  |  | significantly prolonged the reaction latency | did not show any agonist or antagonist activity | did not show any agonist or antagonist activity | did not show any agonist or antagonist activity | did not show any agonist or antagonist activity | improved lowered mechanical pain thresholds |
